The text below walks through data of paper PMC4305510 (Analytical biochemistry, 2014).

Where two headings read alike, the source gives them in different places.

Experiment [1] has as its system Sinapis alba myrosinase. As to the kind of experiment: HPLC progress curves, pooled wavelengths. It counts as biochemical. To be noted: read-out: Km (μM) / HPLC, 0.1 M phosphate pH 7.4, 37 °C.
Experiment [2] concerns Sinapis alba myrosinase. As to the kind of experiment: HPLC progress curves, pooled wavelengths. It counts as biochemical. Conditions: read-out: Km (μM) / HPLC; 0.1 M phosphate pH 7.4, 37 °C; 14.52 U/ml myrosinase.

`C=CC/C(=N/OS(=O)(=O)O)S[C@@H]1O[C@H](CO)[C@@H](O)[C@H](O)[C@H]1O` [compound 4, Sinigrin]: the Km in experiment [1] (4.27 U/ml myrosinase) stood at 168 ± 17 µM. As to `O=S(=O)(O)O/N=C(\S[C@@H]1O[C@H](CO)[C@@H](O)[C@H](O)[C@H]1O)c1ccccc1` [compound 5, Phenyl glucosinolate], in experiment [2], the Km amounted to 1160 ± 70 µM.

Take `O=S(=O)(O)O/N=C(/Cc1ccccc1)S[C@@H]1O[C@H](CO)[C@@H](O)[C@H](O)[C@H]1O` [compound 6, glucotropaeolin]: in experiment [1] (4.84 U/ml myrosinase), the Km was 90.6 ± 6.8 µM.
